Measurements: ChEMBL document CHEMBL3352047, “Hybrids of phenylsulfonylfuroxan and coumarin as potent antitumor agents” (J Med Chem, 2014)
pIC50: −log10 of the molar value.

Legend:
A2780 = experiment: Antiproliferative activity against human A2780 cells after 48 hrs by MTT assay; settings: A2780, 48 h
[1] = Antiproliferative activity against human A2780/CDDP cells after 48 hrs by MTT assay
A549 = experiment: cells; settings: Homo sapiens, A549, 48 h
HeLa = experiment: cells; settings: Homo sapiens, 48 h
HUVEC = experiment: cells; settings: Homo sapiens, 48 h
Description: Antiproliferative activity against HUVEC after 48 hrs by MTT assay

[2] = Antiproliferative activity against human T29 cells after 48 hrs by MTT assay; settings: T29, 48 h
MDA-MB-231 [3] = experiment: Antiproliferative activity against human MDA-MB-231 cells after 48 hrs by MTT assay; settings: MDA-MB-231, 48 h
MDA-MB-231 [4] = experiment: Antiproliferative activity against gemcitabine-resistant human MDA-MB-231 cells after 48 hrs by MTT assay; settings: MDA-MB-231, 48 h

Cc1cc(=O)oc2cc(NCCOc3no[n+]([O-])c3S(=O)(=O)c3ccccc3)ccc12
pIC50 (A2780): 5.61 | pIC50 [1]: 5.26 | pIC50 (A549): 5.84 | pIC50 (HeLa): 5.70 | pIC50 (HUVEC): 5.52

Cc1cc(=O)oc2cc(O)ccc12 [HYMECROMONE]
pIC50 (A2780): < 5.70 | pIC50 [2]: < 5.70

Cc1cc(=O)oc2cc(OCCCCOc3no[n+]([O-])c3S(=O)(=O)c3ccccc3)ccc12
pIC50 (A2780): 6.18 | pIC50 [1]: 6.00 | pIC50 (A549): 6.19 | pIC50 (HeLa): 6.49 | pIC50 (HUVEC): 6.60

CCc1cc(=O)c2ccc(Oc3no[n+]([O-])c3S(=O)(=O)c3ccccc3)cc2o1
pIC50 (A2780): 6.89 | pIC50 [1]: 5.52 | pIC50 (A549): 5.48 | pIC50 (HeLa): < 4.70 | pIC50 (HUVEC): 5.47

Cc1cc(=O)oc2c(C)c(OCCOc3no[n+]([O-])c3S(=O)(=O)c3ccccc3)ccc12
pIC50 (A2780): 7.34 | pIC50 [1]: 6.48 | pIC50 (A549): 6.00 | pIC50 (HeLa): 6.60 | pIC50 (HUVEC): 7.01

Nc1ccn([C@@H]2O[C@H](CO)[C@@H](O)C2(F)F)c(=O)n1 [GEMCITABINE]
pIC50 (MDA-MB-231 [3]): 7.60 | pIC50 (MDA-MB-231 [4]): < 5.00

CCc1cc(=O)c2ccc(OCCCOc3no[n+]([O-])c3S(=O)(=O)c3ccccc3)cc2o1
pIC50 (A2780): 6.54 | pIC50 [1]: 6.05 | pIC50 (A549): 6.40 | pIC50 (HeLa): 6.72 | pIC50 (HUVEC): 6.46

Cc1cc(=O)oc2cc(N(C)CCOc3no[n+]([O-])c3S(=O)(=O)c3ccccc3)ccc12
pIC50 (A2780): 6.02 | pIC50 [1]: 5.62 | pIC50 (A549): 5.99 | pIC50 (HeLa): 6.29 | pIC50 (HUVEC): 6.05

O=S(=O)(c1ccccc1)c1no[n+]([O-])c1S(=O)(=O)c1ccccc1
pIC50 (A2780): 6.06 | pIC50 [1]: 6.05 | pIC50 (A549): 5.63 | pIC50 (HeLa): 5.84 | pIC50 (HUVEC): 5.36

O=c1ccc2ccc(OCCOc3no[n+]([O-])c3S(=O)(=O)c3ccccc3)cc2o1
pIC50 (A2780): 6.77 | pIC50 [1]: 6.70 | pIC50 (A549): 6.59 | pIC50 (HeLa): 6.96 | pIC50 (HUVEC): 6.43

O=c1ccc2ccc(Oc3no[n+]([O-])c3S(=O)(=O)c3ccccc3)cc2o1
pIC50 (A2780): 6.96 | pIC50 [1]: 5.46 | pIC50 (A549): 5.05 | pIC50 (HeLa): 5.34 | pIC50 (HUVEC): 5.17
